The values that follow come from ChEMBL document CHEMBL5113380, “Functionalized quinoxalinones as privileged structures with broad-ranging pharmacological activities” (Eur J Med Chem, 2022).

pIC50, pKi: −log10 of the molar value. ≈ marks a conversion by molar mass, not a printed value.

For assay [1], the target named is T1, Glutamate receptor ionotropic AMPA (Homo sapiens, UniProt P42261+P42262+P42263+P48058). The experiment in a line: Displacement of [3H]AMPA from AMPA receptor (unknown origin). The format is protein-complex assay. For orientation: Loss of bound radioactivity is the signal in a displacement assay; it reports binding, not function.
The target in assay [2] is Glutamate [NMDA] receptor. Kind of assay: Displacement of [3H]glycine from NMDA receptor (unknown origin). The format is protein-complex assay, Homo sapiens.
Assay [3] relates to Pseudomonas aeruginosa. Kind of assay: Antibacterial activity against Pseudomonas aeruginosa. Format: functional.
The subject of assay [4] is Escherichia coli. The experiment in a line: Antibacterial activity against Escherichia coli. Format: functional.
Assay [5] relates to Staphylococcus aureus. Kind of assay: Antibacterial activity against Staphylococcus aureus. Format: functional.
Assay [6] deals with Candida albicans. The experiment in a line: Antifungal activity against Candida albicans. The format is functional.
Assay [7] deals with Klebsiella pneumoniae. Kind of assay: Antibacterial activity against Klebsiella pneumoniae. Format: functional.
Assay [8] concerns Staphylococcus aureus. Kind of assay: Antibacterial activity against methicillin-resistant Staphylococcus aureus. The format is functional.
The nature of assay [9]: Antioxidant activity assessed as DPPH radical scavenging activity. The format is functional. Conditions: read-out: IC50. In general terms: Loss of DPPH colour is used to gauge radical scavenging.
Assay [10] deals with Candida. The experiment in a line: Antifungal activity against Candida species isolate 1. The format is functional.
In assay [11] the test system is Candida. The experiment in a line: Antifungal activity against Candida species isolate 2. The format is functional.
Assay [12] relates to Candida. The experiment in a line: Antifungal activity against Candida species isolate 3. The format is functional.
Assay [13] has as its system Pichia kudriavzevii. Kind of assay: Antifungal activity against Candida krusei. The format is functional.
For assay [14], the system named is Candida parapsilosis. The experiment in a line: Antifungal activity against Candida parapsilosis. The format is functional. Conditions: Lodderomyces parapsilosis.
Assay [15] deals with Candida tropicalis. The experiment in a line: Antifungal activity against Candida tropicalis. The format is functional.
Assay [16] has as its system Nakaseomyces glabratus. The experiment in a line: Antifungal activity against Candida glabrata. The format is functional.
The target in assay [17] is T1, Glutamate receptor ionotropic AMPA. Kind of assay: Displacement of [3H]kainate from AMPA receptor (unknown origin). The format is protein-complex assay.
Assay [18] can be described thus: Displacement of [3H]glycine from AMPA receptor (unknown origin). Format: protein-complex assay, Homo sapiens.
Assay [19] deals with Escherichia coli. The experiment in a line: Antibacterial activity against Escherichia coli assessed as diameter zone of inhibition. The format is functional.
The target of assay [20] is T2, Alpha amylase (Homo sapiens, UniProt P0DUB6).
T2 sequence (P0DUB6 whole entry): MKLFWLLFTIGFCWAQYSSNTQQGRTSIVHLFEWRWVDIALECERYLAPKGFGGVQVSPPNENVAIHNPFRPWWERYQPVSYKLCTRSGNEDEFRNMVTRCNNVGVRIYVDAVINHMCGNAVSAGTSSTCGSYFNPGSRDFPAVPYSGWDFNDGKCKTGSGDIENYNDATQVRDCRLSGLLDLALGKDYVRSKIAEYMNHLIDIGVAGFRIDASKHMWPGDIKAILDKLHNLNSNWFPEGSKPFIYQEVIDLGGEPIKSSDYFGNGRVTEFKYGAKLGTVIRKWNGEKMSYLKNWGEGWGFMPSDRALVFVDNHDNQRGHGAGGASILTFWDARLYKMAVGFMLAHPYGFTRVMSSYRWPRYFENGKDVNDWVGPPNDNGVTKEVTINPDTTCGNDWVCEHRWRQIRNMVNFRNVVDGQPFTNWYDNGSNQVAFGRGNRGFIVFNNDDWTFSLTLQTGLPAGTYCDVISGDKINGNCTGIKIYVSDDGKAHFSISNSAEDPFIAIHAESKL
The experiment in a line: Inhibition of alpha-amylase (unknown origin).

The test system of assay [21] is A549. The experiment in a line: Antiproliferative activity against human A549 cells. The format is functional, cell-based.
In assay [22] the test system is HeLa. The experiment in a line: Antiproliferative activity against human HeLa cells. Format: functional, cell-based.
In assay [23] the test system is LS174T. The experiment in a line: Antiproliferative activity against human LS174T cells. Format: functional, cell-based.
Assay [24] concerns MRC5. The experiment in a line: Antiproliferative activity against human MRC5 cells. The format is functional, cell-based.
Assay [25] in a line: Inhibition of ALR2 (unknown origin). On the set-up: species or system Homo sapiens.
A short description of assay [26]: Inhibition of ALR1 (unknown origin) relative to control. To be noted: Homo sapiens; concentration not given here. Also noted: concentration or dose not given beside the values.
Assay [27] in a line: Antioxidant activity assessed as DPPH radical scavenging activity at 100 uM. Format: functional.
Assay [28] in a line: Antioxidant activity assessed as DPPH radical scavenging activity at 50 uM. The format is functional.
The nature of assay [29]: Antioxidant activity assessed as DPPH radical scavenging activity at 10 uM. The format is functional.

With `O=C(O)Cn1c(=O)c(=O)[nH]c2cc(Cl)c(Cl)cc21`, the pKi (commonly −log10 of the Ki, conventionally taken in molar units) in [1] is 5.68; in assay [2], 6.96.
For the compound `O=C1CSC(c2ccc(F)cc2)N1c1ccc2nc(Cc3ccc(O)cc3)c(=O)[nH]c2c1` (stereo unspecified), the MBC is 21.7 µM (≈ 9.71 µg/mL) in assay [3]; 32.6 µM (≈ 14.6 µg/mL) in [4]; 43.5 µM (≈ 19.5 µg/mL) in [5]; 65.2 µM (≈ 29.2 µg/mL) in assay [6]; 87 µM (≈ 38.9 µg/mL) in assay [7]; 87 µM (≈ 38.9 µg/mL) in assay [8]. Besides, the pIC50 (in general, −log10 of the IC50, conventionally taken in molar units) in assay [9] was 3.62.
Turning to `O=c1[nH]c2cc(C(F)(F)F)ccc2nc1C(F)(F)F`, the MIC (usually the lowest concentration found to suppress growth) in [6] was determined as 8 µg/mL (≈ 28.4 µM); in assay [10], 15.6 µg/mL (≈ 55.3 µM); in assay [11] it was 125 µg/mL (≈ 443 µM); in assay [12] it was 125 µg/mL (≈ 443 µM); in [13], 250 µg/mL (≈ 886 µM); in [14], 15.6 µg/mL (≈ 55.3 µM). Besides, the minimal inhibitory concentration (MIC) in assay [15] and in assay [16] was 125 µg/mL (≈ 443 µM) each time.
`CC(C)CCN1CCc2c(Br)cc3nc(O)c(O)nc3c2C1`: the negative logarithm of the IC50 (pIC50) in assay [1] was 5.01; in assay [17], 6.17; in [18], under 5.00.
Consider `O=c1[nH]c2cc(F)c(F)cc2nc1CBr`, for which the MIC is 125 µg/mL (≈ 454 µM) in assay [5]; 31.2 µg/mL (≈ 113 µM) in [6]; 62.5 µg/mL (≈ 227 µM) in assay [10]; 125 µg/mL (≈ 454 µM) in assay [11]; 500 µg/mL (≈ 1820 µM) in [12]; 125 µg/mL (≈ 454 µM) in [13]. The MIC in assay [14] was 62.5 µg/mL (≈ 227 µM); in assay [15], 500 µg/mL (≈ 1820 µM); in [16], 125 µg/mL (≈ 454 µM).
For `O=C1CN(C(=O)CNc2ccccc2O)c2ccccc2N1`, the “diameter of the inhibition zone (DIZ)” value in assay [19] is on record as 11 mm.
As for `COc1ccc(C2SCC(=O)N2c2ccc3nc(Cc4ccc(O)cc4)c(=O)[nH]c3c2)cc1` (stereo unspecified), the MBC in [3] is 680 µM (≈ 313 µg/mL); in assay [4], 21.2 µM (≈ 9.74 µg/mL); in assay [5] it was 15.9 µM (≈ 7.31 µg/mL); in assay [6], 85 µM (≈ 39.1 µg/mL); in assay [8], 63.8 µM (≈ 29.3 µg/mL). In assay [9], the pIC50 is 4.71. Besides, the concentration for half-maximal inhibition (IC50) (commonly the concentration that gives 50% inhibition) in assay [20] was found to be 301.59 µM.
As to `O=C(/C=C/c1ccccc1)/C=C1/Nc2ccccc2NC1=O`, the pIC50 in assay [21] was 4.65; in assay [22] it was 4.78; in assay [23], 4.72; in assay [24], 3.76.
The matching figures for `COc1ccc(C(=O)Nc2cccc(C(=O)/C=C3/Nc4ccccc4NC3=O)c2)cc1`: 4.39, 4.98, 4.78 and 3.74.
Consider `CN1CCc2c(c([N+](=O)[O-])cc3[nH]c(=O)c(=O)[nH]c23)C1`, for which the pIC50 in [1] was 6.54; in [17] it was 6.42; in assay [18], 5.31.
Regarding `O=c1c(/C=C/c2ccc(O)c(O)c2)nc2ccccc2n1-c1cnn(O)c1`, the pIC50 in assay [9] was 4.68; in assay [25] it was 6.83. Further, in assay [26], the inhibition (as a rule, the change of the read-out against control, counted positive when it falls) is 30.5%. Moreover, the Activity in [27] is 95.6%; in assay [28], 72.5%; in assay [29] it was 40.8%.
With `Cc1cc2[nH]c(=O)c(=O)n(CP(=O)(O)O)c2cc1C`, the pKi in assay [1] was 5.92; in [2] it was 5.28.
With `O=c1[nH]c2cc(C(F)(F)F)ccc2nc1CBr`, the MIC in [5] was 62.5 µg/mL (≈ 204 µM); in [6], over 125 µg/mL; in [10], 62.5 µg/mL (≈ 204 µM); in assay [12] it was under 3.5 µg/mL; in assay [13], 125 µg/mL (≈ 407 µM); in assay [14], over 125 µg/mL. The MIC in assay [15] is 125 µg/mL (≈ 407 µM); in [16], over 125 µg/mL.
Regarding `O=c1c(/C=C/c2ccc(O)cc2)nc2ccc(F)cc2n1-c1cnn(O)c1`, the results for the pIC50 in assay [9] and in assay [25] were 4.10 and 6.97, respectively. The compound further had an inhibition in assay [26] of 34.3%. Also, the Activity amounted to 65.3% in assay [27], 31.5% in assay [28] and 18.7% in assay [29].
Consider `O=c1[nH]c2ccc(C(F)(F)F)cc2nc1C(F)(F)F`, for which the MIC in assay [6] came to 8 µg/mL (≈ 28.4 µM); in assay [10], 125 µg/mL (≈ 443 µM); in [11] it was 125 µg/mL (≈ 443 µM); in assay [12], 125 µg/mL (≈ 443 µM); in assay [13], 250 µg/mL (≈ 886 µM); in assay [14], 125 µg/mL (≈ 443 µM). Moreover, the MIC in assay [15] and in assay [16] was 250 µg/mL (≈ 886 µM) in each case.
In the case of `O=c1[nH]c2cc(-n3ccnc3)c([N+](=O)[O-])cc2[nH]c1=O` [YM-90K], the pKi was 7.08 in [1], 5.66 in [17] and 4.43 in assay [18].
